The NIST ThermoML archive (doi:10.1021/je900641w)
Numbers after ± are expanded uncertainties.

Conditions: 1000 kPa, Liquid, Coaxial cylinder method

| thermal conductivity (302.75 K) [W/m/K] | thermal conductivity (332.54 K) [W/m/K] | thermal conductivity (362.39 K) [W/m/K] | thermal conductivity (392.16 K) [W/m/K] | SMILES |
| --- | --- | --- | --- | --- |
| 0.1605 ± 0.0071 | 0.1452 ± 0.0064 | 0.1317 ± 0.0059 | 0.1183 ± 0.0053 | COCCOC [1,2-dimethoxyethane] |
| 0.1469 ± 0.0065 | 0.1407 ± 0.0063 | 0.1345 ± 0.006 | 0.1274 ± 0.0057 | COCCOCCOCCOCCOC [2,5,8,11,14-pentaoxapentadecane] |
| 0.1433 ± 0.0064 | 0.137 ± 0.0061 | 0.1303 ± 0.0058 | 0.1227 ± 0.0055 | COCCOCCOCCOC [2,5,8,11-tetraoxadodecane] |
| 0.1461 ± 0.0065 | 0.1324 ± 0.0059 | 0.1205 ± 0.0054 | 0.1076 ± 0.0048 | COCCOCCOC [2,5,8-trioxanonane] |
| 0.1242 ± 0.0056 | 0.1169 ± 0.0052 | 0.1085 ± 0.0049 | 0.099 ± 0.0045 | COCC(C)OCC(C)OC (centres undefined) [2-methoxy-1-(2-methoxy-1-methylethoxy)propane] |
| 0.1409 ± 0.0037 | 0.1304 ± 0.0035 | 0.1194 ± 0.0032 | 0.1098 ± 0.003 | c1ccccc1 [benzene] |
